From PubChem BioAssay (NCI)
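How tested: cells in 96-well plates exposed to compound for 48 hours at five concentrations. TGI is the concentration that stops growth completely.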

What was measured:
Assay in all cases: growth of human tumour cells (NCI), 48 h
[1] = tested on: SNB-19 CNS
[2] = tested on: HT29 colon
[3] = tested on: NCI-H522 lung
[4] = tested on: SNB-75 CNS
[5] = tested on: A498 renal
[6] = tested on: HCT-15 colon
[7] = tested on: SW-620 colon
[8] = tested on: MDA-MB-435
[9] = tested on: U251 CNS
[10] = tested on: UO-31 renal
[11] = tested on: OVCAR-3 ovarian
[12] = tested on: DU-145 prostate
[13] = tested on: UACC-257 melanoma
[14] = tested on: BT-549 breast
[15] = tested on: COLO 205 colon
[16] = tested on: SK-MEL-2 melanoma
[17] = tested on: UACC-62 melanoma
[18] = tested on: SF-295 CNS
[19] = tested on: CCRF-CEM leukemia
[20] = tested on: M14 melanoma
[21] = tested on: SK-MEL-28 melanoma
[22] = tested on: CAKI-1 renal
[23] = tested on: MDA-MB-231 breast
[24] = tested on: SN12C renal
[25] = tested on: MOLT-4 leukemia
[26] = tested on: HOP-62 NSCLC
[27] = tested on: SF-268 CNS
[28] = tested on: SK-OV-3 ovarian
[29] = tested on: RPMI-8226 leukemia
[30] = tested on: HOP-92 NSCLC
[31] = tested on: NCI-H23 lung
[32] = tested on: A549 NSCLC
[33] = tested on: IGROV1 ovarian
[34] = tested on: MDA-N
[35] = tested on: NCI-H460 lung
[36] = tested on: SR leukemia
[37] = tested on: OVCAR-4 ovarian
[38] = tested on: OVCAR-5 ovarian
[39] = tested on: PC-3 prostate
[40] = tested on: HCT-116 colon
[41] = tested on: TK-10 renal
[42] = tested on: HCC-2998 colon
[43] = tested on: KM12 colon
[44] = tested on: MALME-3M melanoma
[45] = tested on: SK-MEL-5 melanoma
[46] = tested on: EKVX NSCLC
[47] = tested on: NCI/ADR-RES ovarian
[48] = tested on: HS 578T breast
[49] = tested on: LOX IMVI melanoma
[50] = tested on: ACHN renal
[51] = tested on: SF-539 CNS
[52] = tested on: HL-60(TB) leukemia
[53] = tested on: MCF7 breast
[54] = tested on: OVCAR-8 ovarian
[55] = tested on: 786-0 renal
[56] = tested on: K-562 leukemia
[57] = tested on: RXF 393 renal
[58] = tested on: NCI-H226 lung
[59] = tested on: T-47D breast

Compound: COC(=O)Cc1c(C2C(CC(=O)OC)c3ccccc3N2C2OC(CO)C(O)C(O)C2O)[nH]c2ccccc12 (stereo not drawn)
- TGI [1]: > 100 µM
- TGI [2]: > 100 µM
- TGI [3]: > 100 µM
- TGI [4]: > 100 µM
- TGI [5]: > 100 µM
- TGI [6]: > 100 µM
- TGI [7]: > 100 µM
- TGI [8]: > 100 µM
- TGI [9]: > 100 µM
- TGI [10]: > 100 µM
- TGI [11]: > 100 µM
- TGI [12]: > 100 µM
- TGI [13]: > 100 µM
- TGI [14]: > 100 µM
- TGI [15]: > 100 µM
- TGI [16]: > 100 µM
- TGI [17]: > 100 µM
- TGI [18]: > 100 µM
- TGI [19]: > 100 µM
- TGI [20]: > 100 µM
- TGI [21]: > 100 µM
- TGI [22]: > 100 µM
- TGI [23]: > 100 µM
- TGI [24]: > 100 µM
- TGI [25]: > 100 µM
- TGI [26]: > 100 µM
- TGI [27]: > 100 µM
- TGI [28]: > 100 µM
- TGI [29]: > 100 µM
- TGI [30]: > 100 µM
- TGI [31]: > 100 µM
- TGI [32]: > 100 µM
- TGI [33]: > 100 µM
- TGI [34]: > 100 µM
- TGI [35]: > 100 µM
- TGI [36]: > 100 µM
- TGI [37]: > 100 µM
- TGI [38]: > 100 µM
- TGI [39]: > 100 µM
- TGI [40]: > 100 µM
- TGI [41]: > 100 µM
- TGI [42]: > 100 µM
- TGI [43]: > 100 µM
- TGI [44]: > 100 µM
- TGI [45]: > 100 µM
- TGI [46]: > 100 µM

Compound: CC(C)=CCc1cc(/C=C/C(=O)O)cc(CC=C(C)C)c1O
- TGI [1]: > 100 µM
- TGI [2]: > 100 µM
- TGI [3]: > 100 µM
- TGI [47]: > 100 µM
- TGI [5]: > 100 µM
- TGI [6]: > 100 µM
- TGI [7]: > 100 µM
- TGI [8]: > 100 µM
- TGI [9]: > 100 µM
- TGI [10]: > 100 µM
- TGI [11]: > 100 µM
- TGI [12]: > 100 µM
- TGI [48]: > 100 µM
- TGI [13]: > 100 µM
- TGI [14]: > 100 µM
- TGI [15]: > 100 µM
- TGI [16]: > 100 µM
- TGI [17]: > 100 µM
- TGI [18]: > 100 µM
- TGI [19]: > 100 µM
- TGI [20]: > 100 µM
- TGI [22]: > 100 µM
- TGI [23]: > 100 µM
- TGI [49]: > 100 µM
- TGI [24]: > 100 µM
- TGI [25]: > 100 µM
- TGI [26]: > 100 µM
- TGI [27]: > 100 µM
- TGI [28]: > 100 µM
- TGI [50]: > 100 µM
- TGI [29]: > 100 µM
- TGI [51]: > 100 µM
- TGI [52]: > 100 µM
- TGI [30]: > 100 µM
- TGI [53]: > 100 µM
- TGI [31]: > 100 µM
- TGI [54]: > 100 µM
- TGI [32]: > 100 µM
- TGI [33]: > 100 µM
- TGI [34]: > 100 µM
- TGI [35]: > 100 µM
- TGI [36]: > 100 µM
- TGI [37]: > 100 µM
- TGI [38]: > 100 µM
- TGI [39]: > 100 µM
- TGI [40]: > 100 µM
- TGI [41]: > 100 µM
- TGI [55]: > 100 µM
- TGI [56]: > 100 µM
- TGI [43]: > 100 µM
- TGI [45]: > 100 µM
- TGI [46]: > 100 µM

Compound: O=C(Nc1ccc(F)cc1)c1cc2c(cc1Cl)Sc1nccn1S2(=O)=O
- TGI [1]: > 100 µM
- TGI [2]: > 100 µM
- TGI [3]: > 100 µM
- TGI [4]: 46.9 µM
- TGI [47]: > 100 µM
- TGI [5]: 74 µM
- TGI [6]: > 100 µM
- TGI [57]: > 100 µM
- TGI [7]: > 100 µM
- TGI [8]: > 100 µM
- TGI [9]: 45.2 µM
- TGI [11]: > 100 µM
- TGI [12]: > 100 µM
- TGI [48]: > 100 µM
- TGI [15]: > 100 µM
- TGI [16]: > 100 µM
- TGI [18]: > 100 µM
- TGI [19]: > 100 µM
- TGI [20]: > 100 µM
- TGI [21]: > 100 µM
- TGI [22]: > 100 µM
- TGI [23]: > 100 µM
- TGI [49]: > 100 µM
- TGI [24]: > 100 µM
- TGI [25]: > 100 µM
- TGI [26]: 92.9 µM
- TGI [27]: > 100 µM
- TGI [28]: > 100 µM
- TGI [50]: > 100 µM
- TGI [51]: > 100 µM
- TGI [53]: > 100 µM
- TGI [54]: > 100 µM
- TGI [32]: > 100 µM
- TGI [33]: > 100 µM
- TGI [34]: > 100 µM
- TGI [35]: > 100 µM
- TGI [37]: > 100 µM
- TGI [38]: > 100 µM
- TGI [39]: > 100 µM
- TGI [40]: > 100 µM
- TGI [58]: > 100 µM
- TGI [55]: > 100 µM
- TGI [56]: > 100 µM
- TGI [42]: > 100 µM
- TGI [43]: > 100 µM
- TGI [44]: > 100 µM
- TGI [45]: > 100 µM
- TGI [59]: > 100 µM
- TGI [46]: > 100 µM

Compound: C[C@@H](c1ccccc1)N1CO[C@@]2(C#Cc3ccc4c(c3)OCO4)CCC[C@@H]12
- TGI [1]: 30.3 µM
- TGI [2]: 34.6 µM
- TGI [4]: 27.9 µM
- TGI [47]: 30.8 µM
- TGI [6]: 27.4 µM
- TGI [57]: 24.4 µM
- TGI [8]: 28.2 µM
- TGI [9]: 28.1 µM
- TGI [10]: 28.1 µM
- TGI [12]: 29.7 µM
- TGI [48]: 33.4 µM
- TGI [13]: 38.2 µM
- TGI [15]: 31.4 µM
- TGI [16]: 34.3 µM
- TGI [17]: > 100 µM
- TGI [18]: 28.1 µM
- TGI [19]: > 100 µM
- TGI [20]: 31.2 µM
- TGI [21]: 39 µM
- TGI [22]: 34.6 µM
- TGI [23]: 28.2 µM
- TGI [49]: 25.2 µM
- TGI [24]: 33.3 µM
- TGI [25]: 48.2 µM
- TGI [26]: 29.3 µM
- TGI [28]: 34.5 µM
- TGI [50]: > 100 µM
- TGI [29]: 38 µM
- TGI [52]: > 100 µM
- TGI [30]: 19.7 µM
- TGI [53]: > 100 µM
- TGI [31]: 28.8 µM
- TGI [54]: 27 µM
- TGI [32]: 29.6 µM
- TGI [33]: 22.9 µM
- TGI [34]: 37.7 µM
- TGI [35]: 26 µM
- TGI [36]: 32.5 µM
- TGI [37]: 28.4 µM
- TGI [38]: 32 µM
- TGI [39]: 27.1 µM
- TGI [40]: 29.1 µM
- TGI [58]: 38.6 µM
- TGI [41]: 28.8 µM
- TGI [55]: 36 µM
- TGI [56]: 96.2 µM
- TGI [42]: 34.7 µM
- TGI [43]: 34.7 µM
- TGI [45]: 25.8 µM
- TGI [59]: 34 µM
- TGI [46]: 52.6 µM
